Measured values as given in patent US20200147116A1, “Use of Paeoniflorin-6'-O-benzenesulfonate in treatment of Sjögren's syndrome” (NINGBO ZHIMING BIOTECHNOLOGY CO., LTD., priority 2017, published 2020).

Experiments:
Assay type in all cases: in vivo
[1] = test system: spleen B lymphocytes; assay: Spleen B lymphocyte proliferation in NOD model mice (FIG. 12B)
Text: FIG. 12 Effects of CP-25 on spleen T and B lymphocyte proliferation in NOD model mice.
A: T lymphocytes; B: B lymphocytes

[2] = test system: spleen CD4+ CD25+ FOXP3+ T lymphocytes; assay: Spleen CD4+ CD25+ FOXP3+ T lymphocytes in NOD model mice (FIG. 14)
Text: FIG. 14 Effects of CP-25 on spleen CD4^+ CD25^+ FOXP3^+ T lymphocytes in NOD model mice.

[3] = test system: spleen CD4+ CD25+FOXP3+ T lymphocytes; assay: Spleen CD4+ CD25+ FOXP3+ T lymphocytes in SS model mice (FIG. 5, 6); details: FIG. 6
Text: FIG. 5 Effects of CP-25 on spleen CD4^+ CD25^+FOXP3^+ T lymphocytes in SS model mice.
FIG. 6 Effects of CP-25 on spleen CD4^+ CD25^+FOXP3^+ T lymphocytes in SS model mice.

[4] = test system: Sjögren's syndrome model mice; assay: Water intake in Sjögren's syndrome model mice; details: therapeutic mice, after a week of administration; model control always tends to rise
Experimental: In this invention, low dose (17.5 mg/kg), medium dose (35 mg/kg) and high dose (70 mg/kg) of CP-25 were respectively administrated by gavage to each of randomly assigned group of Sjögren's syndrome model mice for two weeks. Water intake, saliva amount and submaxillary gland pathological analysis and score were determined respectively, on the day before administration, the 7th day and 14th day after administration. The therapeutic effects of CP-25 on Sjögren's syndrome were evaluated by comparison of changes of each index before and after treatment.
However, the water intake in mice of model control group always tends to rise.

[5] = test system: Sjögren's syndrome model mice (C57BL/6 female mice); assay: Saliva amount in induced Sjögren's syndrome model mice (wet weight method after pilocarpine); details: for Saliva amount in SS mice, One week after administration / Saliva amount in SS mice, Two weeks after administration / Saliva amount in SS mice, Pre-administration: Example 1, C57BL/6 SS mice; for Saliva amount in SS mice, Pre-administration / Saliva amount, Pre-administration: baseline before administration; for Saliva amount, One week after: one week of administration; for Saliva amount, Two weeks after: two weeks of administration
Experimental: […] Water intake, saliva amount and submaxillary gland pathological analysis and score were determined respectively, on the day before administration, the 7th day and 14th day after administration. The therapeutic effects of CP-25 on Sjögren's syndrome were evaluated by comparison of changes of each index before and after treatment. 2 Sjögren's syndrome model mice: C57BL/6 female mice housed in a SPF environment with successful modeling (The animal model was made via repeated multi-point intracutaneous injection of submaxillary gland homogenate of homologous mice to tail and back of mice). The animal model was made via repeated multi-point intracutaneously injection of submaxillary gland homogenate of homologous mice to tail and back of mice, and the mice with successful modeling were randomly assigned to each group according to comprehensive conditions of mice. At the same time, the average weight and status of each group of mice should be as close as possible. […] […] High dose of said pharmaceutical should be incubated for half an hour before use. Before measurement, mice were anesthetized via intraperitoneal injection of 0.05 ml of 2.4% pentobarbital sodium, and the satisfactory anesthesia was smooth breathing, corneal reflex disappearance and limb muscle relaxation. After complete anesthesia, a mouse was placed in slightly tilted trendelenburg position, and its body was kept warm using the heater. The mouse was injected intraperitoneally with 0.1 ml of 0.025 mg/ml Pilocarpine, and 5 min later, a weighed cotton ball was placed in the mouth of the mouse for 10 min. After taking the ball out, the saliva weight of mice was measured by the wet weight method.

[6] = test system: spleen CD4+ IL-17A+ T lymphocytes; assay: Spleen CD4+ IL-17A+ T lymphocytes in NOD model mice (FIG. 13)
Text: FIG. 13 Effects of CP-25 on spleen CD4^+ IL-17A^+ T lymphocytes in NOD model mice.

[7] = test system: spleen CD19+ CD27+ B lymphocytes; assay: Spleen CD19+ CD27+ B lymphocytes in SS model mice (FIG. 7)
Text: FIG. 7 Effects of CP-25 on spleen CD19^+ CD27^+ B lymphocytes in SS model mice.

[8] = test system: spleen B lymphocyte; assay: Spleen B lymphocyte proliferation in SS model mice (FIG. 3)
Text: FIG. 3 Effects of CP-25 on spleen B lymphocyte proliferation in SS model mice.

[9] = test system: NOD mice; assay: Saliva amount in NOD mice; details: for Saliva amount in NOD mice, Pre-administration: baseline before administration
Experimental: Before measurement, mice were anesthetized via intraperitoneal injection of 0.05 ml of 2.4% pentobarbital sodium, and the satisfactory anesthesia was smooth breathing, corneal reflex disappearance and limb muscle relaxation. After complete anesthesia, a mouse was placed in slightly tilted trendelenburg position, and its body was kept warm using the heater. The mouse was injected intraperitoneally with 0.1 ml of 0.025 mg/ml Pilocarpine, and 5 min later, a weighed cotton ball was placed in the mouth of the mouse for 10 min. After taking the ball out, the saliva weight of mice was measured by the wet weight method.
Therapeutic effects of on Sjögren's syndrome CP-25 in NOD mice.

[10] = test system: NOD model mice; assay: Organic indexes (spleen, submaxillary gland, thymus) in NOD model mice
[11] = test system: spleen CD11c+ CD80+ DC; assay: Spleen CD11c+ CD80+ DC in SS model mice (FIG. 8)
Text: FIG. 8 Effects of CP-25 on spleen CD11c^+ CD80^+ DC in SS model mice.

[12] = SS model mice, 17.5 mg/kg by gavage
[13] = SS model mice, 35 mg/kg by gavage

C[C@@]12C[C@@]3(O)O[C@H](O1)C1(COC(=O)c4ccccc4)[C@@H]3CC12OC1OC(COS(=O)(=O)c2ccccc2)C(O)C(O)C1O (stereo partly drawn) [CP-25, Paeoniflorin-6′-O-benzenesulfonate]
Spleen B lymphocyte proliferation [1]: significantly inhibit | Ratio of spleen CD4+ CD25+FOXP3+ Treg lymphocytes [2]: significantly improve | Ratio of CD4+ CD25+FOXP3+ Treg lymphocytes [3]: increase | Water intake [4]: begins to drop off | Saliva amount in SS mice, One week after administration ([5]; 17.5 mg/kg): 17.83 ± 2.14 mg/each mouse/10 min | Saliva amount in SS mice, Two weeks after administration ([5]; 17.5 mg/kg): 17.67 ± 2.07^ mg/each mouse/10 min | Saliva amount in SS mice, One week after administration ([5]; 35 mg/kg): 18.33 ± 1.97 mg/each mouse/10 min | Saliva amount in SS mice, Two weeks after administration ([5]; 35 mg/kg): 23.17 ± 2.64 mg/each mouse/10 min | Saliva amount in SS mice, One week after administration ([5]; 70 mg/kg): 25.67 ± 1.63 mg/each mouse/10 min | Saliva amount in SS mice, Two weeks after administration ([5]; 70 mg/kg): 26.83 ± 1.47 mg/each mouse/10 min | Saliva amount in SS mice, Pre-administration ([5]; dose group 17.5 mg/kg): 22.67 ± 3.27 mg/each mouse/10 min | Saliva amount in SS mice, Pre-administration ([5]; dose group 35 mg/kg): 23.01 ± 2.37 mg/each mouse/10 min | Saliva amount in SS mice, Pre-administration ([5]; dose group 70 mg/kg): 22.75 ± 3.67 mg/each mouse/10 min | Saliva amount, One week after [5, 12]: 17.83 ± 2.14 mg/10 min | Saliva amount, Two weeks after [5, 12]: 17.67 ± 2.07^ mg/10 min | Saliva amount, One week after [5, 13]: 18.33 ± 1.97 mg/10 min | Saliva amount, Two weeks after [5, 13]: 23.17 ± 2.64 mg/10 min | Saliva amount, One week after ([5]; SS model mice, 70 mg/kg): 25.67 ± 1.63 mg/10 min | Saliva amount, Two weeks after ([5]; SS model mice, 70 mg/kg): 26.83 ± 1.47 mg/10 min | Saliva amount, Pre-administration ([5]; SS model mice, dose group 17.5 mg/kg by gavage): 22.67 ± 3.27 mg/10 min | Saliva amount, Pre-administration ([5]; SS model mice, dose group 35 mg/kg by gavage): 23.01 ± 2.37 mg/10 min | Saliva amount, Pre-administration ([5]; SS model mice, dose group 70 mg/kg): 22.75 ± 3.67 mg/10 min | Curative effect judged on saliva amount after one week of medication ([5]; SS model mice, high dose of CP-25, TGP, Pae, HCQ at the doses of Table 3): had curative effects | Efficacy judged on saliva amount with medication extended to two weeks ([5]; SS model mice, two weeks of medication): more significant efficacy | Saliva amount (in words) ([5]; Sjögren's syndrome mice, Example 1): significantly increase | Onset time of curative effects versus comparators ([5]; Sjögren's syndrome mice, Example 1, saliva amount): earlier than that of TGP, Pae or HCQ | Ratio of spleen CD4+ IL-17A+ Th17 lymphocytes [6]: significantly inhibit | Ratio of spleen CD19+ CD27+ B lymphocytes [7]: significantly increase | Spleen B lymphocyte proliferation [8]: significantly inhibit | Saliva amount in NOD mice, One week after administration ([9]; 17.5 mg/kg): 15.20 ± 1.04 mg/each mouse/10 min | Saliva amount in NOD mice, Two weeks after administration ([9]; 17.5 mg/kg): 14.25 ± 1.46 mg/each mouse/10 min | Saliva amount in NOD mice, One week after administration ([9]; 35 mg/kg): 15.60 ± 1.50 mg/each mouse/10 min | Saliva amount in NOD mice, Two weeks after administration ([9]; 35 mg/kg): 15.25 ± 1.36 mg/each mouse/10 min | Saliva amount in NOD mice, One week after administration ([9]; 70 mg/kg): 18.20 ± 1.58^#Δ mg/each mouse/10 min | Saliva amount in NOD mice, Two weeks after administration ([9]; 70 mg/kg): 18.25 ± 1.50 mg/each mouse/10 min | Saliva amount in NOD mice, Pre-administration ([9]; dose group 17.5 mg/kg): 19.50 ± 1.38 mg/each mouse/10 min | Saliva amount in NOD mice, Pre-administration ([9]; dose group 35 mg/kg): 19.33 ± 3.20 mg/each mouse/10 min | Saliva amount in NOD mice, Pre-administration ([9]; dose group 70 mg/kg): 19.51 ± 1.87 mg/each mouse/10 min | Saliva amount (in words) ([9]; NOD model mice, Example 4): significantly increase | Onset time of curative effects versus comparators ([9]; NOD model mice, Example 4, saliva amount): earlier than that of TGP, or Pae | Spleen index ([10]; 17.5 mg/kg): 9.5 ± 4.2 mg/g | Submaxillary gland index ([10]; 17.5 mg/kg): 4.5 ± 0.8^ mg/g | Thymus index ([10]; 17.5 mg/kg): 1.3 ± 0.7 mg/g | Spleen index ([10]; 35 mg/kg): 4.2 ± 0.6 mg/g | Submaxillary gland index ([10]; 35 mg/kg): 4.3 ± 0.6 mg/g | Thymus index ([10]; 35 mg/kg): 1.1 ± 0.6 mg/g | Spleen index ([10]; 70 mg/kg): 4.3 ± 0.7 mg/g | Submaxillary gland index ([10]; 70 mg/kg): 4.2 ± 0.6 mg/g | Thymus index ([10]; 70 mg/kg): 1.4 ± 0.5 mg/g | Increasing of submaxillary gland index (in words) ([10]; Example 5): significantly suppress the increasing | Expression of surface molecular CD80+ on spleen CD11c+ DC [11]: significantly inhibit
